Molecules are shown by their SMILES.

For the compound `Cn1cncc1-c1cc(/C=N/N(CCC(C)(C)O)C(N)=S)nc(NC2CCN(S(C)(=O)=O)CC2)n1` [Compound 96, 2-(1-methanesulfonyl-piperidin-4-ylamino)-6-(1-methyl-1H-imidazol-5-yl)-pyrimidine-4-carbaldehyde 2-(2-hydroxy-2-methyl-but-4-yl)-thiosemicarbazone], the melting point fell in the range of 203.6 to 206 °C.

As usually defined, the melting point is the temperature, or range, at which the solid turns liquid.
